# Measurements from patent US20170065593A1, “Combination” (Novartis AG, priority 2009, published 2017).
# Test system: 95 cancer cell lines
# Experimental: (Compound A) or mTOR inhibitor (mTORi, Rapamycin) alone or a combination of both agents at a ratio of 1:2 (MEKi:mTORi) and cell proliferation/death was measured after 3 day drug exposure. Briefly, cells were plated in 384-well plates at 500 cells/well in culture media appropriate for each cell type, supplemented with 10% FBS and 1% penicillin/streptomycin, and incubated overnight at 37° C., 5% CO2. […] (two fold dilutions ranging from 7.3 uM-0.014 nM) or with mTOR inhibitor (two fold dilutions ranging from 14.6 uM-0.112 nM) or in combination with both compounds and incubated for 72 hours. Cell growth was measured using the CellTiterGlo (CTG) reagent (Promega) according to the manufacturer's protocol. Data were analyzed using the XLfit (IDBS Ltd.) curve-fitting tool for Microsoft Excel. Growth IC50 (gIC50) and Ymin values were generated using a four-parameter curve fit algorithm (XLFit algorithm #205).
# Results were expressed as a percent of the t=0 and plotted against the compound concentration. The T=0 value is normalized to 100% and represents the number of cells at the time of compound addition. […] Formula below was used to calculate mutually exclusive combination index (CI). Data were reported as log CI, where the logarithm value of CI was calculated.
# CI=IC50 of a+b/IC50 of a+IC50 of b+a/IC50 of b
# Synergy is defined as CI<1, additivity as CI=1 and antagonism as CI>1. Considering the variability of these proliferation assays we arbitrarily defined log CI>0.1 as antagonism, between −0.1 and 0.1 as no significant effect and <−0.1 as synergy.
substance,measurement,setting,value
"N-{3-[3-cyclopropyl-5-(2-fluoro-4-iodo-phenylamino)6,8-dimethyl;-2,4,7-trioxo-3,4,6,7-tetrahydro-2H-pyrido[4,3-d]pyrimidin-1-yl]phenyl}acetamide [Compound A]",percentage of cell undergoing death (cytotoxic),,20%
same,cell lines undergoing death,independent of the KRAS status,> 20%
